Values joined by “and” are separate entries in the source; they are usually repeats but may differ in a detail not shown here. Equal values may be shown once.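 Compound exposure: 48 hours, 5 concentrations, 96-well plates. GI50: concentration for 50% inhibition of growth. TGI is the concentration that stops growth completely.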
Legend:
Test in all cases: inhibition of tumour cell growth, NCI panel, 48 h
A498 renal = tested on: A498 renal
HL-60(TB) leukemia = tested on: HL-60(TB) leukemia
ACHN renal = tested on: ACHN renal
NCI-H522 lung = tested on: NCI-H522 lung
HS 578T breast = tested on: HS 578T breast
SK-MEL-5 melanoma = tested on: SK-MEL-5 melanoma
SF-268 CNS = tested on: SF-268 CNS
RXF 393 renal = tested on: RXF 393 renal
OVCAR-3 ovarian = tested on: OVCAR-3 ovarian
SK-OV-3 ovarian = tested on: SK-OV-3 ovarian
SK-MEL-2 melanoma = tested on: SK-MEL-2 melanoma
SW-620 colon = tested on: SW-620 colon
OVCAR-4 ovarian = tested on: OVCAR-4 ovarian
T-47D breast = tested on: T-47D breast
HT29 colon = tested on: HT29 colon
HOP-62 NSCLC = tested on: HOP-62 NSCLC
MDA-MB-231 breast = tested on: MDA-MB-231 breast
NCI-H226 lung = tested on: NCI-H226 lung
SN12C renal = tested on: SN12C renal
OVCAR-8 ovarian = tested on: OVCAR-8 ovarian
A549 NSCLC = tested on: A549 NSCLC
CCRF-CEM leukemia = tested on: CCRF-CEM leukemia
SNB-75 CNS = tested on: SNB-75 CNS
BT-549 breast = tested on: BT-549 breast
UO-31 renal = tested on: UO-31 renal
UACC-62 melanoma = tested on: UACC-62 melanoma
M14 melanoma = tested on: M14 melanoma
PC-3 prostate = tested on: PC-3 prostate
K-562 leukemia = tested on: K-562 leukemia
TK-10 renal = tested on: TK-10 renal
MDA-N = tested on: MDA-N
SNB-19 CNS = tested on: SNB-19 CNS
MDA-MB-435 = tested on: MDA-MB-435
CAKI-1 renal = tested on: CAKI-1 renal
NCI/ADR-RES ovarian = tested on: NCI/ADR-RES ovarian
MALME-3M melanoma = tested on: MALME-3M melanoma
HCT-116 colon = tested on: HCT-116 colon
MCF7 breast = tested on: MCF7 breast
RPMI-8226 leukemia = tested on: RPMI-8226 leukemia
HOP-92 NSCLC = tested on: HOP-92 NSCLC
OVCAR-5 ovarian = tested on: OVCAR-5 ovarian
EKVX NSCLC = tested on: EKVX NSCLC
MOLT-4 leukemia = tested on: MOLT-4 leukemia
HCC-2998 colon = tested on: HCC-2998 colon
786-0 renal = tested on: 786-0 renal
NCI-H23 lung = tested on: NCI-H23 lung
SF-539 CNS = tested on: SF-539 CNS
IGROV1 ovarian = tested on: IGROV1 ovarian
SF-295 CNS = tested on: SF-295 CNS
DU-145 prostate = tested on: DU-145 prostate
NCI-H460 lung = tested on: NCI-H460 lung
COLO 205 colon = tested on: COLO 205 colon
LOX IMVI melanoma = tested on: LOX IMVI melanoma
U251 CNS = tested on: U251 CNS
KM12 colon = tested on: KM12 colon
HCT-15 colon = tested on: HCT-15 colon
UACC-257 melanoma = tested on: UACC-257 melanoma
SK-MEL-28 melanoma = tested on: SK-MEL-28 melanoma
SR leukemia = tested on: SR leukemia

Cc1noc(C)c1-n1nc2ccc3nonc3c2n1 was tested, and the TGI (A498 renal) was 66.8 µM, the TGI (HL-60(TB) leukemia) was > 100 µM and the TGI (ACHN renal) was > 100 µM. The TGI (NCI-H522 lung) was > 100 µM, the TGI (HS 578T breast) was > 88.1 µM and the TGI (SK-MEL-5 melanoma) was > 100 µM. The TGI (SF-268 CNS) was > 100 µM, the TGI (RXF 393 renal) was 51.5 µM and the TGI (OVCAR-3 ovarian) was > 100 µM. For the same compound, the TGI (SK-OV-3 ovarian) was > 73.4 µM, the TGI (SK-MEL-2 melanoma) was > 100 µM and the TGI (SW-620 colon) was > 100 µM. The TGI (OVCAR-4 ovarian) was > 100 µM, the TGI (T-47D breast) was > 100 µM and the TGI (HT29 colon) was > 100 µM. For the same compound, the TGI (HOP-62 NSCLC) was 59.7 µM, the TGI (MDA-MB-231 breast) was > 100 µM and the TGI (NCI-H226 lung) was > 100 µM. The TGI (SN12C renal) was > 100 µM, the TGI (OVCAR-8 ovarian) was > 100 µM and the TGI (A549 NSCLC) was > 100 µM. The TGI (CCRF-CEM leukemia) was > 100 µM, the TGI (SNB-75 CNS) was > 82.4 µM and the TGI (BT-549 breast) was > 100 µM. The TGI (UO-31 renal) was > 100 µM, the TGI (UACC-62 melanoma) was > 100 µM and the TGI (M14 melanoma) was > 100 µM. The TGI (PC-3 prostate) was > 100 µM, the TGI (K-562 leukemia) was > 100 µM and the TGI (TK-10 renal) was > 82 µM. The TGI (MDA-N) was > 100 µM, the TGI (SNB-19 CNS) was > 76.4 µM and the TGI (MDA-MB-435) was > 100 µM. For the same compound, the TGI (CAKI-1 renal) was > 100 µM, the TGI (NCI/ADR-RES ovarian) was > 100 µM and the TGI (MALME-3M melanoma) was > 100 µM. For the same compound, the TGI (HCT-116 colon) was > 100 µM, the TGI (MCF7 breast) was > 100 µM and the TGI (RPMI-8226 leukemia) was > 100 µM. The TGI (HOP-92 NSCLC) was > 86.4 µM, the TGI (OVCAR-5 ovarian) was > 100 µM and the TGI (EKVX NSCLC) was > 92.4 µM. The TGI (MOLT-4 leukemia) was > 100 µM, the TGI (HCC-2998 colon) was > 100 µM and the TGI (786-0 renal) was > 93 µM. The TGI (NCI-H23 lung) was > 100 µM, the TGI (SF-539 CNS) was > 71.4 µM and the TGI (IGROV1 ovarian) was > 100 µM. For the same compound, the TGI (SF-295 CNS) was 98.6 µM, the TGI (DU-145 prostate) was > 100 µM and the TGI (NCI-H460 lung) was > 100 µM. The TGI (COLO 205 colon) was > 100 µM, the TGI (LOX IMVI melanoma) was > 100 µM and the TGI (U251 CNS) was > 75.4 µM. The TGI (KM12 colon) was > 100 µM, the TGI (HCT-15 colon) was > 100 µM and the TGI (UACC-257 melanoma) was > 100 µM. The TGI (SK-MEL-28 melanoma) was > 100 µM and the TGI (SR leukemia) was > 100 µM.

In the case of Nc1ccccc1NC(=O)c1ccc(CNC(=O)OCc2cccnc2)cc1, the GI50 (A498 renal) is reported as 0.361 µM, the TGI (A498 renal) is reported as 2.98 µM and 4.14 µM and the GI50 (HL-60(TB) leukemia) is reported as 0.847 µM. The TGI (HL-60(TB) leukemia) was 26.6 µM and > 22.5 µM, the GI50 (ACHN renal) was 2.34 µM and the TGI (ACHN renal) was > 77.7 µM and 25.7 µM. For the same compound, the GI50 (NCI-H522 lung) was 0.698 µM, the TGI (NCI-H522 lung) was 7.41 µM and > 27.9 µM and the GI50 (HS 578T breast) was 2.33 µM. The TGI (HS 578T breast) was > 100 µM, the GI50 (SK-MEL-5 melanoma) was 0.743 µM and the TGI (SK-MEL-5 melanoma) was 2.31 µM and 2.3 µM. The GI50 (SF-268 CNS) was 1.86 µM, the TGI (SF-268 CNS) was 25 µM and > 74.7 µM and the GI50 (RXF 393 renal) was 1.49 µM. The TGI (RXF 393 renal) was 6.31 µM and 27.6 µM, the GI50 (OVCAR-3 ovarian) was 1.74 µM and the TGI (OVCAR-3 ovarian) was 11.5 µM and 14.8 µM. The GI50 (SK-OV-3 ovarian) was 2.75 µM, the TGI (SK-OV-3 ovarian) was > 100 µM and the GI50 (SK-MEL-2 melanoma) was 1.1 µM. The TGI (SK-MEL-2 melanoma) was 15 µM and 3.2 µM, the GI50 (SW-620 colon) was 1.3 µM and the TGI (SW-620 colon) was 34.5 µM and > 100 µM. For the same compound, the GI50 (OVCAR-4 ovarian) was 1.31 µM, the TGI (OVCAR-4 ovarian) was > 100 µM and the GI50 (T-47D breast) was 0.462 µM. For the same compound, the TGI (T-47D breast) was > 100 µM, the GI50 (HT29 colon) was 1.04 µM and the TGI (HOP-62 NSCLC) was > 90 µM. For the same compound, the GI50 (MDA-MB-231 breast) was 13.8 µM, the TGI (MDA-MB-231 breast) was > 100 µM and 25.6 µM and the GI50 (NCI-H226 lung) was 0.604 µM. For the same compound, the TGI (NCI-H226 lung) was 16.9 µM and 5.73 µM, the GI50 (SN12C renal) was 9.39 µM and the TGI (SN12C renal) was > 100 µM. For the same compound, the TGI (OVCAR-8 ovarian) was > 100 µM, the TGI (A549 NSCLC) was > 100 µM and the GI50 (CCRF-CEM leukemia) was 1.94 µM. For the same compound, the TGI (CCRF-CEM leukemia) was > 100 µM and 21.7 µM, the TGI (SNB-75 CNS) was > 100 µM and the GI50 (BT-549 breast) was 4.14 µM. The TGI (BT-549 breast) was > 100 µM, the GI50 (UO-31 renal) was 1.17 µM and the TGI (UO-31 renal) was > 100 µM and 20.3 µM. The GI50 (UACC-62 melanoma) was 0.278 µM, the TGI (UACC-62 melanoma) was 1.77 µM and 4.81 µM and the GI50 (M14 melanoma) was 2.35 µM. The TGI (M14 melanoma) was > 100 µM and 15.5 µM, the TGI (PC-3 prostate) was > 100 µM and the GI50 (K-562 leukemia) was 0.505 µM. The TGI (K-562 leukemia) was > 100 µM, the GI50 (TK-10 renal) was 0.289 µM and the TGI (TK-10 renal) was 38.8 µM and > 100 µM. For the same compound, the TGI (MDA-N) was 12.4 µM, the GI50 (SNB-19 CNS) was 6.33 µM and the TGI (SNB-19 CNS) was > 100 µM and 75.2 µM. For the same compound, the GI50 (MDA-MB-435) was 0.956 µM, the TGI (MDA-MB-435) was 14.8 µM and > 33.1 µM and the GI50 (CAKI-1 renal) was 1.17 µM. The TGI (CAKI-1 renal) was 14.1 µM and > 59.5 µM, the GI50 (NCI/ADR-RES ovarian) was 2.38 µM and the TGI (NCI/ADR-RES ovarian) was > 67.4 µM. The GI50 (MALME-3M melanoma) was 0.577 µM and 0.267 µM, the TGI (MALME-3M melanoma) was > 23.6 µM and 2.39 µM and the GI50 (HCT-116 colon) was 0.798 µM. For the same compound, the TGI (HCT-116 colon) was > 92 µM and 11.6 µM, the GI50 (MCF7 breast) was 0.637 µM and the TGI (MCF7 breast) was > 100 µM. For the same compound, the GI50 (RPMI-8226 leukemia) was 0.895 µM, the TGI (RPMI-8226 leukemia) was > 29.5 µM and 4.54 µM and the GI50 (HOP-92 NSCLC) was 0.0382 µM. The GI50 (OVCAR-5 ovarian) was 1.05 µM, the GI50 (EKVX NSCLC) was 3.26 µM and the TGI (EKVX NSCLC) was > 100 µM. For the same compound, the GI50 (MOLT-4 leukemia) was 1.93 µM, the TGI (MOLT-4 leukemia) was > 85 µM and the TGI (HCC-2998 colon) was 5.44 µM and 9.79 µM. The GI50 (786-0 renal) was 4.96 µM, the TGI (786-0 renal) was > 90.9 µM and the GI50 (NCI-H23 lung) was 3.23 µM. For the same compound, the TGI (NCI-H23 lung) was > 89.4 µM and 14.9 µM, the GI50 (SF-539 CNS) was 3.19 µM and the TGI (SF-539 CNS) was 78.7 µM and > 52.1 µM. For the same compound, the GI50 (IGROV1 ovarian) was 3.95 µM, the TGI (IGROV1 ovarian) was > 61.6 µM and 36.2 µM and the GI50 (SF-295 CNS) was 2.57 µM. For the same compound, the TGI (SF-295 CNS) was > 39.8 µM and 16.6 µM, the GI50 (DU-145 prostate) was 2.26 µM and the TGI (DU-145 prostate) was > 100 µM. For the same compound, the GI50 (NCI-H460 lung) was 0.83 µM, the TGI (NCI-H460 lung) was > 100 µM and the GI50 (COLO 205 colon) was 2.01 µM. For the same compound, the TGI (COLO 205 colon) was 8.37 µM and 3.03 µM, the GI50 (LOX IMVI melanoma) was 1.06 µM and the TGI (LOX IMVI melanoma) was 8.67 µM and 5.94 µM. For the same compound, the GI50 (U251 CNS) was 2.03 µM, the TGI (U251 CNS) was > 39.5 µM and 5.74 µM and the GI50 (KM12 colon) was 4.31 µM. For the same compound, the TGI (KM12 colon) was > 100 µM, the GI50 (HCT-15 colon) was 8.47 µM and the TGI (HCT-15 colon) was > 100 µM. The TGI (UACC-257 melanoma) was > 29 µM, the GI50 (SK-MEL-28 melanoma) was 0.663 µM and the TGI (SK-MEL-28 melanoma) was 5.94 µM and > 45.4 µM. The GI50 (SR leukemia) was 0.533 µM and the TGI (SR leukemia) was > 100 µM.
